The values below come from ChEMBL document CHEMBL4177641, “Identification of an allosteric benzothiazolopyrimidone inhibitor of the oncogenic protein tyrosine phosphatase SHP2” (Bioorg Med Chem, 2017).

Molecules are shown by their SMILES. Where a chain is given by its changes, count along the chain named. Active and inactive are the calls of the source. The rule behind the calls is not given here.

The subject of one assay is A2058. Briefly: Antiproliferative activity against human A2058 cells harboring BRAF V600E mutation at up to 2 uM after 3 days by CellTiter-Glo luminescence assay. It is filed as functional, cell-based. (In general: In ATP-based viability assays light output follows the ATP content of the culture.)
Assay [1] has as its system T1, Tyrosine-protein phosphatase non-receptor type 11 (Homo sapiens), Q06124 [F285S].
T1 sequence (whole entry): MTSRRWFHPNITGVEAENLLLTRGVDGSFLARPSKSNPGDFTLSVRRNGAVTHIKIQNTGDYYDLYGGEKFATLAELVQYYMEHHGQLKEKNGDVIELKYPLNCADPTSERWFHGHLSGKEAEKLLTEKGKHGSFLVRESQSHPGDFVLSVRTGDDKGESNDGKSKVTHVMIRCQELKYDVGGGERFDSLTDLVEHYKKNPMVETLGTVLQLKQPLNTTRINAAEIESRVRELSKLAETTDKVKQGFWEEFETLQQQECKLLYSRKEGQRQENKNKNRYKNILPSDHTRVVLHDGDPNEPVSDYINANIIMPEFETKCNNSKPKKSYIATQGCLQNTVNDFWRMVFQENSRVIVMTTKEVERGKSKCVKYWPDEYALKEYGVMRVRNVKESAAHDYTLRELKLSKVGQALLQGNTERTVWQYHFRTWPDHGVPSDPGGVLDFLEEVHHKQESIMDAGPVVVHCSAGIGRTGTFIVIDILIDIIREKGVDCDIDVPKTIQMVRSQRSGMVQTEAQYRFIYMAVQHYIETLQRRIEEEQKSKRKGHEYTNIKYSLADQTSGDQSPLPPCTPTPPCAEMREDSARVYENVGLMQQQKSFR
The assay is described as follows: Inhibition of SHP2 F285S mutant (1 to 525 residues) (unknown origin) expressed in Escherichia coli BL21(DE3) at up to 2 uM using DIFMUP as substrate preincubated for 30 mins followed by substrate addition by fluorescence assay.

In assay [2] the target is T2, Tyrosine-protein phosphatase non-receptor type 11 (Homo sapiens) (UniProt Q06124).
T2 sequence (whole entry): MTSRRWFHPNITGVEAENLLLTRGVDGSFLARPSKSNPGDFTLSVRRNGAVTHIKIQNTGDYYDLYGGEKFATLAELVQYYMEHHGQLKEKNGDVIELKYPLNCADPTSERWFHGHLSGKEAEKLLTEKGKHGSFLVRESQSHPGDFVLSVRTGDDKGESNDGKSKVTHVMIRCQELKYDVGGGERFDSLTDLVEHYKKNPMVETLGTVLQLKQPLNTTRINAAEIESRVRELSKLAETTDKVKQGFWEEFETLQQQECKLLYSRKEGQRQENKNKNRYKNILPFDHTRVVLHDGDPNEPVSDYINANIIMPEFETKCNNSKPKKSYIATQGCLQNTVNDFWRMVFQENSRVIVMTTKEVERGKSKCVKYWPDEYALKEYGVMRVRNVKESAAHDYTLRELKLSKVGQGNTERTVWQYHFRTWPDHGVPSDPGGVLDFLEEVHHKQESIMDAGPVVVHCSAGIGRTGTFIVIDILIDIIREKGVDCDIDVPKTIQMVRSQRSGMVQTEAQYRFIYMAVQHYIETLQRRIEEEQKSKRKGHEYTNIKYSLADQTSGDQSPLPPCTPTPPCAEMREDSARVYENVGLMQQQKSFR
The assay is described as follows: Inhibition of SHP2 in human MOLM14 cells assessed as reduction in phospho-Erk levels at up to 400 uM after 2 hrs by Western blot analysis. It is filed as cell-based.

The target in assay [3] is T2, Tyrosine-protein phosphatase non-receptor type 11 (Homo sapiens). The assay is described as follows: Inhibition of wild-type SHP2 (1 to 525 residues) (unknown origin) expressed in Escherichia coli BL21(DE3) using DIFMUP as substrate preincubated for 30 mins followed by substrate addition by fluorescence assay.
Another assay relates to MOLM-14. Briefly: Antiproliferative activity against human MOLM14 cells after 3 days by CellTiter-Glo luminescence assay. The format is functional, cell-based. The conditions noted are these: for IC50: MOLM-14, 72 h.
In assay [4] the target is T2, Tyrosine-protein phosphatase non-receptor type 11 (Homo sapiens). Briefly: Inhibition of SHP2 PTP domain (1 to 525 residues) (unknown origin) expressed in Escherichia coli BL21(DE3) using DIFMUP as substrate preincubated for 30 mins followed by substrate addition by fluorescence assay.
Assay [5] has as its system T3, Tyrosine-protein phosphatase non-receptor type 11 (Homo sapiens), Q06124 [F285S,T253M,Q257L].
T3 sequence (whole entry): T1 sequence (whole entry) with T253M, Q257L
Briefly: Inhibition of SHP2 F285S/T253M/Q257L mutant (1 to 525 residues) (unknown origin) expressed in Escherichia coli BL21(DE3) using DIFMUP as substrate preincubated for 30 mins followed by substrate addition by fluorescence assay.

For assay [6], the system named is T1, Tyrosine-protein phosphatase non-receptor type 11 (Homo sapiens), Q06124 [F285S]. Briefly: (§1) Inhibition of SHP2 F285S mutant (1 to 525 residues) (unknown origin) expressed in Escherichia coli BL21(DE3) using DIFMUP as substrate preincubated for 30 mins followed by substrate addition by fluorescence assay.
Assay [7] concerns the target Tyrosine-protein phosphatase non-receptor type 11 (Homo sapiens, UniProt Q06124, F285S). The description is as §1.

On to `O=c1c(Cc2ccccc2)c(O)nc2sc3cc(Cl)ccc3n12`, for which, in the assay on A2058, the result was inactive. In addition, the inhibition (as a rule, the relative decrease from the control value, in per cent) in assay [1] came out at 60%. In addition, the inhibition result in [2] is “inactive”. Moreover, the inhibition entry in assay [3] is “Active”. Half-maximal inhibition with MOLM-14 (IC50) required 85 µM.
For the molecule `NCc1ccc2c(c1)sc1nc(O)c(Cc3ccccc3)c(=O)n12`, in the assay with A2058, the result was inactive.
For the molecule `CC1(N)CCN(c2cnc(-c3cccc(Cl)c3Cl)c(N)n2)CC1`, the outcome in the assay on A2058 was inactive. In addition, in the assay with MOLM-14, the IC50 (usually the concentration needed to halve the response being measured) amounted to 0.9 µM.
On to `COc1ccc2c(c1)sc1nc(O)c(Cc3ccccc3)c(=O)n12`, for which the inhibition result in [4] and in assay [5] was “inactive” in each case. Besides, the figures for the inhibition entry in [6] and in assay [1] were “Dose-dependent effect” and 40%, respectively. In [7], the IC50 stood at 10 µM.
Turning to `COc1ccc2c(c1)sc1nc(Cl)c(Cc3ccccc3)c(=O)n12`, the result with A2058 and in the assay with MOLM-14 was inactive. In assay [1], the inhibition entry was “inactive”.
